Results as given in patent publication US20050239841A1, “New compounds” (priority 2003, published 2005).
Where a name gives a salt, the structure may show the parent alone.

molecular target: T1, human MCH1R receptor (Homo sapiens, UniProt Q99705); assay: MCH1R receptor binding by SPA ([125I]-MCH displacement); settings: 0.2 nM [125I]-MCH, membranes of CHO-K1 cells expressing hMCH1 receptor, WGA SPA beads; Ki calculated from IC50
T1 construct: host or cells: CHO-K1
Method: The compounds according to the invention were evaluated for their binding to the human MCH1R receptor by the following method:
Compounds: MCH peptide was purchased from Phoenix pharmaceuticals. (Phe^13, [^125I]Tyr^19 Melanine-Concentrating Hormone (human, mouse, rat) ([^125I]-MCH) was obtained from NEN life Science Products. Inc. Boston, Mass. Wheat germ agglutinine SPA beads (RPNQ 0001) were obtained from Amersham-Pharmacia Biotech. All other reagents used are of highest purity from different resources available. Protein Kits, Micro BCA™ Protein Assay Reagent Kit (Cat No. 23235) were purchased from Piece, Rockford, Ill., USA.
CHO-K1 cells expressing hMCH1 receptor were purchased from Euroscreen.
CHO-K1 hMCHR1 (Euroscreen, Brussels, Belgium, # ES-370-C) were cultivated in Nutrient mixture Ham's F-12 with Glutamax I (Gibco-BRL #31765-027) supplemented with 10% heat-inactivated foetal calf serum (FCS, Gibco-BRL #10108-165) and 400 μg/ml geniticin (Gibco-BRL #1140-0359). The cells were sub-cultivated twice weekly with split ratio=1:20-1:30. For membrane preparation the cells were cultured in […] and the cells were harvested when 90% confluent.
When the cells reached more than 90% confluence, dishes (500 cm^2) were rinsed twice with 20 ml PBS (Ca^2+ and Mg^2+ free). Buffer A, which contains Tris.HCl (15), MgCl2.6H2O (2), EDTA (0.3), EGTA (1) in mM with pH 7.5, 25 ml was added and cells were suspended using a window scraper. The cells were collected in 50 ml Falcon tube pre-cooled on ice and then centrifuged for 3 minutes at 1500 g at 4° C. […]
The radio labeled [^125I]-MCH was diluted with cold MCH in ratio 1:3. […] The results were calculated using Excel program and the curves were drawn using a program GraphPad Prism.
For screening of the substances the amount of the beads used was 0.25 mg/well and the amount of the membrane protein was 4 μg/well 0.2 nM of labeled MCH was used. […] The samples were counted using Microbeta counter (Wallac Trilux 1450 Micro beta counter, Wallac, Finland) for 2 minutes and the results were calculated by using the computer program Activity Base. […]

T1 sequence (Q99705 whole entry): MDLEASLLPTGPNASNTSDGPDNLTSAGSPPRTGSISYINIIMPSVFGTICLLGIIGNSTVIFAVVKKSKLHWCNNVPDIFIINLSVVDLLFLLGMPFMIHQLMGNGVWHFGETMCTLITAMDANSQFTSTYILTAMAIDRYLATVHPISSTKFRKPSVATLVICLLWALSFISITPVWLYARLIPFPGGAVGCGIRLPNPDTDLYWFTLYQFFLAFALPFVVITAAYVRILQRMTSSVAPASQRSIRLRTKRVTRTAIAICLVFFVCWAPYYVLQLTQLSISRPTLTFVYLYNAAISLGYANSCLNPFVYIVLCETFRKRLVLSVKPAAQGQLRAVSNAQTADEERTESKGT

First: COc1ccc([C@@]23CC[C@@H](NC(=O)Nc4ccc(OC(F)(F)F)cc4)C[C@@H]2N(C)CC3)cc1OC (relative stereo) [Example 70, N-[(3aS*,6R*,7aS*)-3a-(3,4-dimethoxyphenyl)-1-methyloctahydro-1H-indol-6-yl]-N′-[4-(trifluoromethoxy)phenyl]urea trifluoroacetate]
Second: CCOc1ccc([C@@]23CC[C@@H](NC(=O)Nc4ccc(F)c(F)c4)C[C@@H]2N(C)CC3)cc1OCC (relative stereo) [Example 208, N-[(3aS*,6R*,7aS*)-3a-(3,4-diethoxyphenyl)-1-methyloctahydro-1H-indol-6-yl]-N′-(3,4-difluoro]henyl)urea trifluoroacetate]
The Ki of the first is 5-fold lower: 52 nM for the first, 258 nM for the second. The first binds more tightly here.

`C=CCN(C(=O)Nc1ccc(Cl)c(C(F)(F)F)c1)C1CCC2(c3ccc(OC)c(OC)c3)CCN(C)C2C1` (stereo not drawn) [Example 159, N-ally-N′-[4-chloro-3-(trifluoromethyl)phenyl]-N-[(3aS*,6R*,7aS*)-3a-(3,4-dimethoxyphenyl)-1-methyloctahydro-1H-indol-6-yl]urea] gave a Ki of 75 nM.
